Results on 43 molecules are retold here after PubChem BioAssay (NCI).

The structures appear in SMILES notation.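 48-hour exposure; five concentrations; linearly interpolated endpoints. GI50 is the concentration that inhibits growth by half. TGI denotes the concentration required for complete inhibition of growth.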

The experiment relates to MDA-MB-468 breast. Nature of the experiment: growth of human tumour cells (NCI), 48 h.
For the molecule `O=c1cc(-c2ccccc2)[nH]c2cc(F)c(F)cc12`, the GI50 was 384 nM and the TGI is more than 100000 nM.

As to `CC[C@H](C)[C@H]1NC(=O)[C@@H](N[C@](C)(O)[C@@H](N)CC(C)C)[C@@H](C)OC(=O)[C@H](Cc2ccc(OC)cc2)N(C)C(=O)[C@@H]2CCCN2C(=O)[C@H](CC(C)C)NC(=O)[C@@H](C)C(=O)[C@H](C(C)C)OC(=O)C[C@@H]1O`, the GI50 is 21.7 nM and the TGI worked out at 261 nM.

In the case of `C/C=C(\C)C(=O)N[C@H]1CC[C@]2(C)C3CC[C@@]4(C)C(CC[C@@H]4C(C)N(C)C)C3CCC2[C@H]1OC(C)=O` (stereo partly specified), the GI50 is 1170 nM and the TGI came to 2630 nM.

Take `Cc1cc(N2CCCCC2)nc(N(CCCNc2ccnc3cc(Cl)ccc23)Cc2ccco2)n1`: the GI50 is 1720 nM and the TGI turned out to be 3870 nM.

As to `O=C1NN(c2ccc(C(=O)O)cc2)C(=O)/C1=C\c1ccc([N+](=O)[O-])o1`, the GI50 was 22500 nM and the TGI was 57400 nM.

As to `C[C@@H]1CN(C(=O)c2ccc(NC(=O)c3cc(O[C@H](C)c4c(Cl)ccc(F)c4Cl)c(N)nn3)cc2)C[C@H](C)N1`, the GI50 is 2510 nM and the TGI was 9870 nM.

For the molecule `C1=Cc2ccccc2Nc2ccccc21`, the GI50 is 4360 nM and the TGI is 33700 nM.

Take `CC[C@@H](C(=O)[C@@H](C)[C@@H](O)[C@H](C)[C@@H]1O[C@@H]([C@@H](CC)C(=O)O)CC[C@@H]1C)C1O[C@]2(C=CC(=O)[C@]3(CC[C@@](C)([C@H]4CC[C@](O)(CC)[C@H](C)O4)O3)O2)[C@H](C)C[C@@H]1C` (stereo partly specified): the GI50 is 85.7 nM and the TGI was found to be 1960 nM.

On to `O=[N+]([O-])c1ccc(Br)c([N+](=O)[O-])c1`, for which the GI50 was 1670 nM and the TGI was determined as 3270 nM.

In the case of `C[n+]1c(/C=C\c2ccc(Cl)cc2)ccc2ccccc21`, the GI50 was 2360 nM and the TGI amounted to 8370 nM.

For the molecule `CCN(CC)CCCC(C)Nc1cnc(C(=O)Nc2ccc(Cl)c3cccnc23)cn1` (stereo unspecified), the GI50 was 1570 nM and the TGI came out at 3490 nM.

For `COc1cc(NS(C)(=O)=O)ccc1Nc1c2ccc(Cl)cc2nc2c(OC)cccc12`, the GI50 is 136 nM and the TGI is 484 nM.

Consider `CCC(C)(C)C(=O)O[C@H]1C[C@@H](C)C=C2C=C[C@H](C)[C@H](CC[C@@H]3C[C@@H](O)CC(=O)O3)[C@H]21`, for which the GI50 is 1620 nM and the TGI was 6680 nM.

As to `O=C1CC(c2ccc(N3CCOCC3)cc2)(c2ccsc2)NC(=O)C1Sc1ccccc1Cl` (stereo unspecified), the GI50 was 86700 nM and the TGI is more than 100000 nM.

In the case of `CC1=C[C@H]2c3c(c(O)c(O)c4oc5c(C)cccc5c(=O)c34)[C@H](c3cc(O)c(O)c4oc5c(C)cccc5c(=O)c34)[C@H]2C(C)(C)C1`, the GI50 was 2620 nM and the TGI came to 7860 nM.

Turning to `COc1ccc2c(c1)C(=O)/C(=C/c1cccc(OCC(=O)Nc3nc4c(s3)CCCC4)c1)O2`, the GI50 was 188 nM and the TGI came out at 353 nM.

Take `Cn1nccc1Nc1nccc(-c2cc3c(s2)C(C)(C)N(CCN2CCOCC2)C3=O)n1`: the GI50 is 6100 nM and the TGI was more than 83500 nM.

`COC(=O)Nc1nc2ccc(Oc3ccc(NC(=O)Nc4cccc(C(=O)O)c4)cc3)cc2[nH]1`: the GI50 was 998 nM and the TGI amounted to 12800 nM.

As to `CC(C)(C)NC(C1=CC(C)(C)c2ccccc2C1=O)c1ccccc1` (stereo unspecified), the GI50 was 245 nM and the TGI is 1660 nM.

For `N#C/C(=C\c1ccc(-c2ccc(Cl)cc2)o1)C(=O)Nc1ncc(Cc2ccc(Cl)cc2)s1`, the GI50 was 2380 nM and the TGI came out at 6490 nM.

For the molecule `COc1ccccc1OCC(=O)Nc1sc2c(c1C(N)=O)CCC2`, the GI50 is more than 100000 nM and the TGI is more than 100000 nM.

As to `Cn1cncc1[C@@](N)(c1ccc(Cl)cc1)c1ccc2c(c1)c(-c1cccc(Cl)c1)cc(=O)n2C`, the GI50 was 1690 nM and the TGI amounted to 6760 nM.

On to `c1ccc(Cn2cc3c(c2-c2ccccc2)CCc2cnoc2-3)cc1`, for which the GI50 is 2060 nM and the TGI was determined as 8020 nM.

Regarding `COc1ccc2nc(-c3cc(-c4cc(OC)c(OC)c(OC)c4)n[nH]3)[nH]c2c1`, the GI50 was 388 nM and the TGI came out at 4960 nM.

With `COc1cccc(C2c3cc4c(cc3OC(C)(O)C2C)OCO4)c1O` (stereo unspecified), the GI50 was 4830 nM and the TGI was 56600 nM.

On to `C=C1C(=O)O[C@H]2[C@H]1CC/C(COC(=O)CCCCC(=O)OC/C1=C/CC[C@@]3(C)O[C@H]3[C@H]3OC(=O)C(=C)[C@@H]3CC1)=C\CC[C@@]1(C)O[C@@H]21`, for which the GI50 was 1660 nM and the TGI worked out at 5110 nM.

Take `CN(C)c1ccc(N2Cc3ccccc3OC3=C2C(=O)c2c(O)ccc(O)c2C3=O)cn1`: the GI50 was 169 nM and the TGI came to 425 nM.

With `COc1cc2nc(-c3cnc(N(C)C)nc3)nc(NC3CCN(Cc4ccccc4)CC3)c2cc1OC`, the GI50 was 1380 nM and the TGI was found to be 2960 nM.

As for `Oc1ccc2cc(Br)ccc2c1-c1c(O)ccc2cc(Br)ccc12`, the GI50 was 3620 nM and the TGI was 11700 nM.

Take `CCCN(CCC)C(=O)C1=Cc2ccc(-c3ccc(C(=O)N4CCCC4)cc3)cc2N=C(N)C1`: the GI50 is 2560 nM and the TGI came out at 11800 nM.

For the molecule `COc1ccc(-c2[nH]c3ccccc3c2C=C(C#N)C#N)cc1`, the GI50 is 557 nM and the TGI is more than 100000 nM.

On to `Cc1nn(-c2nc3ccccc3s2)c(C)c1Oc1ccccc1O`, for which the GI50 was 1130 nM and the TGI was determined as 27400 nM.

On to `O=c1c2cccc(Cl)c2sc2c(NCCCNCCO)nc3ccccc3c12`, for which the GI50 is 1190 nM and the TGI turned out to be 2980 nM.

Consider `Cn1cc(C2=C(c3cccc4ccccc34)C(=O)NC2=O)c2ccccc21`, for which the GI50 is 8240 nM and the TGI is more than 25000 nM.

On to `COc1cc(C(=O)c2ccc3c(c2)OCO3)cc(OC)c1OC`, for which the GI50 was 586 nM and the TGI was 3320 nM.

Turning to `COc1cc(-c2nc(Nc3nc4ccccc4[nH]3)nc(N)c2C#N)cc(OC)c1OC`, the GI50 is 1390 nM and the TGI was found to be 26600 nM.

With `CC1=CC(=NC(=O)CBr)C=C/C1=N\S(=O)(=O)c1ccccc1`, the GI50 is 2410 nM and the TGI was found to be 8010 nM.

For `COc1ccc(N(CC(=O)NCCC[Te]c2ccccc2)C(=O)c2ccccc2)cc1`, the GI50 is 4240 nM and the TGI was determined as 17600 nM.

Regarding `Cn1cc(-c2nc(-c3c[nH]c4ncccc34)cs2)c2cc(F)ccc21`, the GI50 was 69 nM and the TGI was 725 nM.

On to `CCOc1cccc(/C=N/NC(=O)c2ccc(Nc3ccnc(C(F)(F)F)c3)cc2)c1O`, for which the GI50 is 349 nM and the TGI came out at 2960 nM.

In the case of `Cn1ccnc1C(=O)/C=C/c1ccc(C(=O)Nc2ccc(Cl)cc2)cc1`, the GI50 is 793 nM and the TGI worked out at 2800 nM.

Take `CC1(C)CC[C@]23CC[C@]4(C)[C@H](CC[C@@H]5[C@@]6(C)CCCN(CO)C(C)(C)[C@@H]6CC[C@]54C)[C@H]2[C@H]1OC3`: the GI50 was 1810 nM and the TGI was 4180 nM.

For `CCOc1c(Br)cc(C2C(C(=O)OC)=CN(C)C=C2C(=O)OC)cc1OC`, the GI50 is 37700 nM and the TGI is more than 100000 nM.
